Laboratory results: PubChem BioAssay (NCI)
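Dose response: 5 concentrations. Exposure: 48 h. Format: 96-well plates. Endpoint: linear interpolation; highest concentration if not reached. At the GI50, growth is halved. Definition used: TGI = concentration required for complete inhibition of growth.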

What was measured:
Test in all cases: NCI tumour cell line growth inhibition, 48 h
[1] = system: SF-539 CNS
[2] = system: SW-620 colon
[3] = system: A498 renal
[4] = system: MDA-MB-435
[5] = system: NCI-H522 lung
[6] = system: PC-3 prostate
[7] = system: NCI/ADR-RES ovarian
[8] = system: MOLT-4 leukemia
[9] = system: TK-10 renal
[10] = system: UACC-62 melanoma
[11] = system: IGROV1 ovarian
[12] = system: LOX IMVI melanoma
[13] = system: NCI-H23 lung
[14] = system: HL-60(TB) leukemia
[15] = system: HOP-62 NSCLC
[16] = system: HCC-2998 colon
[17] = system: OVCAR-5 ovarian
[18] = system: UACC-257 melanoma
[19] = system: DU-145 prostate
[20] = system: OVCAR-4 ovarian
[21] = system: T-47D breast
[22] = system: HOP-92 NSCLC
[23] = system: A549 NSCLC
[24] = system: OVCAR-8 ovarian
[25] = system: SNB-19 CNS
[26] = system: MDA-MB-468 breast
[27] = system: SK-MEL-5 melanoma
[28] = system: NCI-H460 lung
[29] = system: SK-OV-3 ovarian
[30] = system: MCF7 breast
[31] = system: HS 578T breast
[32] = system: SK-MEL-28 melanoma
[33] = system: SK-MEL-2 melanoma
[34] = system: K-562 leukemia
[35] = system: COLO 205 colon
[36] = system: BT-549 breast
[37] = system: HCT-116 colon
[38] = system: M14 melanoma
[39] = system: EKVX NSCLC
[40] = system: OVCAR-3 ovarian
[41] = system: SR leukemia
[42] = system: CAKI-1 renal
[43] = system: MALME-3M melanoma
[44] = system: UO-31 renal
[45] = system: RPMI-8226 leukemia
[46] = system: SF-295 CNS
[47] = system: HT29 colon
[48] = system: SNB-75 CNS
[49] = system: SN12C renal
[50] = system: 786-0 renal
[51] = system: U251 CNS
[52] = system: CCRF-CEM leukemia
[53] = system: HCT-15 colon
[54] = system: MDA-MB-231 breast
[55] = system: SF-268 CNS
[56] = system: NCI-H226 lung
[57] = system: ACHN renal
[58] = system: RXF 393 renal
[59] = system: KM12 colon

Structure (SMILES): CC1(c2ccccc2)NC(=O)N(CC(=O)Nc2ccc(C(=O)/C=C/c3ccccc3)cc2)C1=O (configuration not stated)
- GI50 [1]: 12.9 µM
- TGI [1]: 25.9 µM
- GI50 [2]: 15.1 µM
- TGI [2]: 34.9 µM
- GI50 [3]: 14.2 µM
- TGI [3]: 28.7 µM
- GI50 [4]: 3.11 µM
- TGI [4]: 13.5 µM
- GI50 [5]: 11.1 µM
- TGI [5]: 27.4 µM
- GI50 [6]: 7.74 µM
- TGI [6]: 51.9 µM
- GI50 [7]: 21.8 µM
- TGI [7]: 82.3 µM
- GI50 [8]: 7.1 µM
- TGI [8]: 57.1 µM
- GI50 [9]: 17.8 µM
- TGI [9]: 68.2 µM
- GI50 [10]: 6.52 µM
- TGI [10]: 23 µM
- GI50 [11]: 12.9 µM
- TGI [11]: 27.7 µM
- GI50 [12]: 7.56 µM
- TGI [12]: 20.8 µM
- GI50 [13]: 13.9 µM
- TGI [13]: 28.9 µM
- GI50 [14]: 12.3 µM
- TGI [14]: 68.3 µM
- GI50 [15]: 18.2 µM
- TGI [15]: 53.5 µM
- GI50 [16]: 4.25 µM
- TGI [16]: 14.3 µM
- GI50 [17]: 16.5 µM
- TGI [17]: 36.6 µM
- GI50 [18]: 13.1 µM
- TGI [18]: 27.4 µM
- GI50 [19]: 13.7 µM
- TGI [19]: 28.9 µM
- GI50 [20]: 13.3 µM
- TGI [20]: 96.3 µM
- GI50 [21]: 3.17 µM
- TGI [21]: 29.2 µM
- GI50 [22]: 9.31 µM
- TGI [22]: 69.2 µM
- GI50 [23]: 10.8 µM
- TGI [23]: 27.7 µM
- GI50 [24]: 16.8 µM
- TGI [24]: 64.3 µM
- GI50 [25]: 14 µM
- TGI [25]: 35.6 µM
- GI50 [26]: 5.7 µM
- TGI [26]: 20.6 µM
- GI50 [27]: 7.59 µM
- TGI [27]: 20.4 µM
- GI50 [28]: 15.5 µM
- TGI [28]: 41 µM
- GI50 [29]: 17.9 µM
- TGI [29]: 52.2 µM
- GI50 [30]: 3.15 µM
- TGI [30]: 14 µM
- GI50 [31]: 20.5 µM
- TGI [31]: > 100 µM
- GI50 [32]: 14.3 µM
- TGI [32]: 29.1 µM
- GI50 [33]: 12.8 µM
- TGI [33]: 33.9 µM
- GI50 [34]: 4.03 µM
- TGI [34]: > 100 µM
- GI50 [35]: 14.2 µM
- TGI [35]: 29.6 µM
- GI50 [36]: 8.21 µM
- TGI [36]: 21.6 µM
- GI50 [37]: 1.63 µM
- TGI [37]: 3.35 µM
- GI50 [38]: 9.54 µM
- TGI [38]: 22.7 µM
- GI50 [39]: 7.62 µM
- TGI [39]: 33 µM
- GI50 [40]: 11.8 µM
- TGI [40]: 26.8 µM
- GI50 [41]: 3.1 µM
- TGI [41]: > 100 µM
- GI50 [42]: 11.5 µM
- TGI [42]: 29.6 µM
- GI50 [43]: 15 µM
- TGI [43]: 38.9 µM
- GI50 [44]: 10.3 µM
- TGI [44]: 23.9 µM
- GI50 [45]: 2.27 µM
- TGI [45]: 6.85 µM
- GI50 [46]: 11.9 µM
- TGI [46]: 26.3 µM
- GI50 [47]: 7.82 µM
- TGI [47]: 24.6 µM
- GI50 [48]: 3 µM
- TGI [48]: 41.7 µM
- GI50 [49]: 11.5 µM
- TGI [49]: 35 µM
- GI50 [50]: 13.7 µM
- TGI [50]: 27.4 µM
- GI50 [51]: 6.17 µM
- TGI [51]: 21.3 µM
- GI50 [52]: 5.76 µM
- TGI [52]: 41.3 µM
- GI50 [53]: 14.2 µM
- TGI [53]: 35.3 µM
- GI50 [54]: 11.7 µM
- TGI [54]: 30.9 µM
- GI50 [55]: 12.4 µM
- TGI [55]: 48.6 µM
- GI50 [56]: 15.8 µM
- TGI [56]: 78.1 µM
- GI50 [57]: 13.2 µM
- TGI [57]: 31 µM
- GI50 [58]: 5.81 µM
- TGI [58]: 21.6 µM
- GI50 [59]: 4.94 µM
- TGI [59]: 26.8 µM

Structure (SMILES): O=C(Nc1cc(Cl)cc(Cl)c1)Nc1cc(Cl)cc(Cl)c1
- GI50 [1]: 2.26 µM
- TGI [1]: 6.07 µM
- GI50 [2]: 3.4 µM
- TGI [2]: > 100 µM
- GI50 [3]: 2.24 µM
- TGI [3]: 6.51 µM
- GI50 [4]: 3.11 µM
- TGI [4]: > 100 µM
- GI50 [5]: 1.23 µM
- TGI [5]: 5.22 µM
- GI50 [6]: 2.42 µM
- TGI [6]: > 100 µM
- GI50 [7]: 2.17 µM
- TGI [7]: 8.41 µM
- GI50 [8]: 1.82 µM
- TGI [8]: 4.42 µM
- GI50 [9]: 3.27 µM
- TGI [9]: > 100 µM
- GI50 [10]: 2.48 µM
- TGI [10]: 14.3 µM
- GI50 [11]: 3.52 µM
- TGI [11]: > 100 µM
- GI50 [12]: 2.1 µM
- TGI [12]: 4.54 µM
- GI50 [13]: 1.86 µM
- TGI [13]: 5.55 µM
- GI50 [14]: 1.57 µM
- TGI [14]: 4.07 µM
- GI50 [15]: 2.61 µM
- TGI [15]: 8.74 µM
- GI50 [16]: 3.13 µM
- TGI [16]: > 100 µM
- GI50 [17]: 2.91 µM
- TGI [17]: > 100 µM
- GI50 [18]: 2.35 µM
- TGI [18]: 6.42 µM
- GI50 [19]: 3.89 µM
- TGI [19]: > 100 µM
- GI50 [20]: 3.54 µM
- TGI [20]: > 100 µM
- GI50 [21]: 3.04 µM
- TGI [21]: > 100 µM
- GI50 [22]: 1.99 µM
- TGI [22]: 6.02 µM
- GI50 [23]: 2.02 µM
- TGI [23]: > 100 µM
- GI50 [24]: 2.9 µM
- TGI [24]: > 100 µM
- GI50 [25]: 3.05 µM
- TGI [25]: > 100 µM
- GI50 [26]: 2.27 µM
- TGI [26]: 6.48 µM
- GI50 [27]: 1.74 µM
- TGI [27]: 3.28 µM
- GI50 [28]: 2.11 µM
- TGI [28]: > 100 µM
- GI50 [29]: 2.4 µM
- TGI [29]: 6.31 µM
- GI50 [30]: 2.28 µM
- TGI [30]: 7.37 µM
- GI50 [31]: 2.69 µM
- TGI [31]: 8.47 µM
- GI50 [32]: 2.75 µM
- TGI [32]: > 100 µM
- GI50 [34]: 2.5 µM
- TGI [34]: 12.8 µM
- GI50 [35]: 1.99 µM
- TGI [35]: 3.5 µM
- GI50 [36]: 2.45 µM
- TGI [36]: 7.85 µM
- GI50 [40]: 2.92 µM
- TGI [40]: > 100 µM
- GI50 [41]: 1.72 µM
- TGI [41]: 4.1 µM
- GI50 [42]: 2.79 µM
- TGI [42]: > 100 µM
- GI50 [43]: 1.92 µM
- TGI [43]: 5.13 µM
- GI50 [45]: 0.861 µM
- TGI [45]: 3.97 µM
- GI50 [46]: 1.74 µM
- TGI [46]: 4.4 µM
- GI50 [47]: 2.88 µM
- TGI [47]: 14.9 µM
- GI50 [49]: 2.66 µM
- TGI [49]: 9.92 µM
- GI50 [50]: 3 µM
- TGI [50]: > 100 µM
- GI50 [51]: 2.75 µM
- TGI [51]: 11.5 µM
- GI50 [52]: 2.55 µM
- TGI [52]: 8.04 µM
- GI50 [53]: 2.18 µM
- TGI [53]: > 100 µM
- GI50 [55]: 3.31 µM
- TGI [55]: > 100 µM
- GI50 [56]: 2.95 µM
- TGI [56]: > 100 µM
- GI50 [57]: 2.75 µM
- TGI [57]: > 100 µM
- GI50 [58]: 2.56 µM
- TGI [58]: 8.66 µM
- GI50 [59]: 2.97 µM
- TGI [59]: 9.44 µM
